The species entered for experiment [1] is Canis familiaris. The experiment is described as follows: In vitro effect on methemoglobin formation in blood of dog at 1 mM concentration; Nil. The following applies: Canis lupus familiaris. In kind it is functional.
Experiment [2] is filed under the species Canis familiaris. In words: In vitro effect on methemoglobin formation in blood of dog at 5 mM concentration. In kind it is functional, Canis lupus familiaris.
For experiment [3], the species on record is Canis familiaris. The experiment is described as follows: In vitro effect on methemoglobin formation in blood of dog at 1 mM concentration. In kind it is functional, Canis lupus familiaris.
The species named for experiment [4] is Canis familiaris. The experiment is described as follows: In vitro effect on methemoglobin formation in blood of dog at 5 mM concentration; Nil. In kind it is functional. Particulars: Canis lupus familiaris.

SMILES strings stand for the structures. Calls of active or inactive are those of the source. The rule behind the calls is not given here.

Drawing on ChEMBL document CHEMBL1131958, “Synthesis of bisquinolines and their in vitro ability to produce methemoglobin in canine hemolysate” (1999), this text covers Methemoglobin for 9 molecules.

Take `Clc1ccc2c(NCCNCCCCNCCNc3ccnc4cc(Cl)ccc34)ccnc2c1`: the Methemoglobin result was “Nil” in the experiment filed under Canis familiaris [1] and 3% in the experiment filed under Canis familiaris [2].
The matching figures for `N/C(=N\CCCC(Nc1ccnc2cc(Cl)ccc12)C(=O)O)Nc1ccnc2cc(Cl)ccc12` (stereo not drawn): “Nil” and 1.5%.
For `O=[N+]([O-])c1cc2c(NCCCCNc3ccnc4cc(Cl)c([N+](=O)[O-])cc34)ccnc2cc1Cl`, in that order: “Nil” and 6.42%.
With `Clc1ccc2c(NCCN3CCN(c4ccnc5cc(Cl)ccc45)CC3)ccnc2c1`, the Methemoglobin entry in the experiment listed under Canis familiaris [1] and in the experiment filed under Canis familiaris [2] (Canis lupus familiaris) was “Nil” throughout.
Turning to `COc1cc(NC(C)CCCN)c2ncccc2c1` (stereo not drawn) [PRIMAQUINE], the Methemoglobin in the experiment filed under Canis familiaris [3] is recorded as 11.52%; in the experiment filed under Canis familiaris [2] it was 87.6%.
For `O=C(O)C(CCCCNc1ccnc2cc(Cl)ccc12)Nc1ccnc2cc(Cl)ccc12` (stereo not drawn), the Methemoglobin entry in the experiment listed under Canis familiaris [4] and in the experiment filed under Canis familiaris [1] was “Nil” throughout.
For the molecule `Clc1ccc2c(NCCCCNc3ccnc4cc(Cl)ccc34)ccnc2c1`, the Methemoglobin in the experiment listed under Canis familiaris [3] is 29.5%; in the experiment listed under Canis familiaris [2], 90.8%.
Regarding `O=C(O)C(CCCNc1ccnc2cc(Cl)ccc12)Nc1ccnc2cc(Cl)ccc12` (stereo not drawn), the Methemoglobin result in the experiment filed under Canis familiaris [1] is on record as “Nil”; in the experiment filed under Canis familiaris [2] it was 6.89%.
As for `CCN(CC)CCCC(C)Nc1ccnc2cc(Cl)ccc12` (stereo not drawn), the Methemoglobin result in the experiment listed under Canis familiaris [4] and in the experiment listed under Canis familiaris [1] was “inactive” in each case.
